Results on two compounds are retold here after US20120165319A1, “INHIBITORS OF INTERLEUKIN-1 BETA CONVERTING ENZYME” (VERTEX PHARMACEUTICALS INCORPORATED, priority 1995, published 2012).

Series [1] concerns the target T1, ICE (Homo sapiens, UniProt P29466).
T1 sequence (P29466 120-297 limits assumed): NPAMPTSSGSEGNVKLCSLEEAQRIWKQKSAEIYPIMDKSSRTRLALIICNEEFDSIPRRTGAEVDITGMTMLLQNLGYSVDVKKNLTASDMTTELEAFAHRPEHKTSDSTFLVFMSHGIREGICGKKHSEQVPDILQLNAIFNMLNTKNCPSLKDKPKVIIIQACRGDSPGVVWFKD
T1 sequence (P29466 317-404 limits assumed): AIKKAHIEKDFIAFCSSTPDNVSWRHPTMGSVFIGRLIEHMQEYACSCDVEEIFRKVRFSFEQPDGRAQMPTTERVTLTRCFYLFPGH
Nature of the series: Enzyme assay with fluorescent substrate (Acetyl-Tyr-Val-Ala-Asp-AMC); Ki and second order rate constants kinact. In kind it is biochemical. Particulars: YVAD-AMC substrate; reversible inhibitors (Table 1).

For another series, the target named is T2, TX (Homo sapiens, UniProt P49662).
T2 construct: made in house; host or cells: Spodoptera frugiperda (Sf9) insect cells, recombinant baculovirus (pVL1393/TX)
T2 sequence (P49662 81-270 limits assumed): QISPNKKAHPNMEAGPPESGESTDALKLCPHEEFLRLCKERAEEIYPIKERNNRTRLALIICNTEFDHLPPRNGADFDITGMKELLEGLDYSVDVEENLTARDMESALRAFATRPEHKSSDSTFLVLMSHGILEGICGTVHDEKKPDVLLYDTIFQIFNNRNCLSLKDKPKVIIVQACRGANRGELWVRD
T2 sequence (P49662 290-377 limits assumed): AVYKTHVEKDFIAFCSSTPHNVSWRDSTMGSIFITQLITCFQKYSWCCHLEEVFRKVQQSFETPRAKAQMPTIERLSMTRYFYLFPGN
The experiment in a line: Inhibition of ICE homologs: TX. In kind it is biochemical. Particulars: ICE substrate, conditions identical to ICE (Table 1). The source says:
Expression of TX in insect cells using a baculovirus expression system. We have subcloned Tx cDNA (Faucheu et al., supra 1995) into a modified pVL1393 transfer vector, co-transfected the resultant plasmid (pVL1393/TX) into insect cells with viral DNA and identified the recombinant baculovirus. After the generation of high titer recombinant virus stock, the medium was examined for TX activity using the visible ICE assay. […] ICE was used as a standard in the assay.
The selectivity of a panel of reversible inhibitors for ICE homologs is depicted in Table 1. ICE enzyme assays were performed according to Wilson et al (supra 1994) using a YVAD-AMC substrate (Thornberry et al, supra 1992). Assay of TX activity was performed using the ICE substrate under identical conditions to ICE. Assay of CPP32 was performed using a DEVD-AMC substrate (Nicholson et al., supra 1995). In general, there is low selectivity between ICE and TX for a wide range of scaffolds. None of the synthetic ICE compounds tested are effective inhibitors of CPP32.
Second-order rate constants for inactivation of ICE and ICE homologs with selected irreversible inhibitors are presented below (Table 2). The irreversible compounds studied are broad spectrum inhibitors of ICE and its homologs. Some selectivity, however, is observed with the irreversible compounds comparing inhibition of ICE and CPP32.

The nature of series [2]: Measurement of blood levels of prodrugs of 214e after p.o. dosing in mice. The note with it: orally, detection level 0.03 to 3 μg/ml. In kind it is in vivo, mouse. On the procedure: Measurement of Blood Levels of Prodrugs of 214e
Mice were administered a p.o. dose of compounds 302 and 304a (50 mg/kg) prepared in 0.5% carboxymethylcellulose. Blood samples were collected at 1 and 7 hours after dosing. Serum was extracted by precipitation with an equal volume of acetonitrile containing 2% formic acid followed by centrifugation. The supernatant was analyzed by liquid chromatography-mass spectrometry (ESI-MS) with a detection level of 0.03 to 3 μg/ml.

The test system of the next series is U937 cells. Nature of the series: Fas-induced apoptosis in U937 cells. Particulars: anti-Fas-induced apoptosis, U937 cells, 20 μM.
The target in another series is T3, CPP32 (Homo sapiens, UniProt P42574).
T3 sequence (P42574 29-175 limits assumed): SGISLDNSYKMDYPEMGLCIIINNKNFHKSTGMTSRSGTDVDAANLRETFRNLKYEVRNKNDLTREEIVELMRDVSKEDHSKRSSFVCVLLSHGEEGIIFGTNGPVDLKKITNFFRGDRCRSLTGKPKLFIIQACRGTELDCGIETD
T3 sequence (P42574 176-277 limits assumed): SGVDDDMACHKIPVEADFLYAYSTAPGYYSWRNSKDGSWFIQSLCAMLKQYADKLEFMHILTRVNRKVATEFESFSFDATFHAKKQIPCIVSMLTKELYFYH
Nature of the series: Inhibition of ICE homologs: CPP32 (DEVD-AMC substrate).

Series [3] deals with T1, ICE. The experiment in a line: Inhibition of IGIF processing by ICE inhibitors, measured in ICE inhibition assays (Example 27, Table 22). In kind it is biochemical. Particulars: read-out: UV-Visible Ki. On the procedure:
Inhibition of IGIF processing by ICE inhibitors was measured in ICE inhibition assays as described herein (see Example 1 and Table 22).

Description for U937 cells: Fas-Induced Apoptosis in U937 cells. Compounds were evaluated for their ability to block anti-Fas-induced apopotosis. […] We used this cell line for apoptosis studies. U937 cells were seeded in culture at 1×10^5 cells/ml and grown to ˜5×10^6 cells/ml. For apoptosis experiments, 2×10^6 cells were plated in 24-well tissue culture plates in 1 ml RPMI-1640-10% FBS and stimulated with 100 ng/ml anti-Fas antigen antibody (Medical and Biological Laboratories, Ltd.). After a 24 hr incubation at 37° C., the percentage of apoptotic cells was determined by FACS analysis using ApoTag reagents.

Turning to `O=C[C@H](CC(=O)O)NC(=O)[C@@H]1CCCN2C(=O)CC[C@H](NC(=O)c3ccccc3)C(=O)N12` [Compound 214e, [3S(1S,9S)]3-(9-Benzoylamino-6,10-dioxo-1,2,3,4,7,8,9,10-octahydro-6H-pyridazino[1,2-a][1,2]-diazepine-1-carboxamido)-4-oxobutanoic acid], the Ki (as a rule, a measure of affinity in units of concentration, obtained from inhibition or displacement) is 7.5 nM on ICE [1], 7 ± 1.1 nM on TX and greater than 1000 nM on CPP32. The “blood levels when administered orally” value in series [2] is no more than 100 ng/mL. Further, the Inhibition of apoptosis result in the series with U937 cells is “no inhibition”.

`O=C[C@H](CC(=O)O)NC(=O)[C@@H]1CCCN2C(=O)CC[C@H](NC(=O)c3nccc4ccccc34)C(=O)N12` [Compound 412, [3S(1S,9S)]3-[6,10-Dioxo-9-(isoquinolin-1-oylamino)-1,2,3,4,7,8,9,10-octahydro-6H-pyridazino[1,2-a][1,2]diazepine-1-carboxamido]-4-oxobutanoic acid]: on ICE [3], the Ki amounted to 1.3 nM.
